Assay results: patent US8729034B2, “Pharmaceutical composition having virucidal and spermicidal activity” (priority 2007, dated 2014)
“And” between values parts separate entries of the source, which are not always exact repeats. Equal entries are not always repeated. “Also recorded” adds a separate entry of the source. Where two headings read alike, the source gives them in different places.

Columns and labels:
Format in all cases: cell-based
human sperm = assay: Electron microscopy of treated sperm (TEM/SEM); details: Ac-B-treated human sperm
Protocol: For electron microscopy, the suspending medium was replaced with 0.1M phosphate buffer (pH 7.0). A concentrated untreated (control) and Ac-B-treated (experimental) human sperm suspension were mixed with 2% glutaraldehyde in phosphate buffer for fixation at 4 degree C. for 4 hours. After three successive washings in buffer at room temperature, post-fixation was done by 1% osmium tetroxide. Thirty minutes after post-fixation, the spermatozoa were quickly washed with phosphate buffer and end block staining was done by saturated urenyl acetate solution. Dehydration of the fixed spermatozoa was done in graded (50%, 70%, 90% and 100%) ethyl alcohol. A portion of each set of dehydrated sperms were embedded in spur and blocks were prepared for ultra-thin sectioning. Ultra-thin sections were prepared in LKB Ultramicrotome using a diamond knife. Finally the thin sections were stained with urenyl acetate and freshly prepared lead citrate. The stained sections were thoroughly examined under TECHNI G2 BIOTWEEN transmission electron microscope (at ×25000). The rest of the dehydrated sperm sets were prepared for examination under tescan scanning electron microscope.

Candida albicans = assay: Effect on in vitro culture of Candida albicans for 24 hours; details: Ac-B 125 microgram per ml; PD agar
Protocol: Candida albicans spores were grown in vitro on Potato dextrose [PD] agar plates without (control) and with Ac-B at a concentration of 125 microgram per ml.

HIV-1 NL-4.3 virus = details: for Percentage inhibition of hiv growth in CEM-GFP T cell line, Without Pretreatment: untreated virus
Protocol: Human CD4+ T cell line CEM-GFP cells were infected with HIV-1 NL-4.3 virus pretreated without or with Ac-B at varying concentrations (1 hour at 37 degree C.) at a multiplicity of infection (MOI) of 0.01. The cells were then cultured in the presence or absence of Ac-B for up to 7 days post infection. Virus production was analyzed in the culture supernatant on day-7 post infection by p24 antigen capture ELISA

human spermatozoa [1] = assay: Sander & Cramer spermicidal assay (in vitro)
Protocol: The exudates/liquefied human semen samples were suspended in BWW medium (pre equilibrated at 37 degree C.). The spermatozoa with forward motility were separated from immotile or sluggishly motile cells by the swim-up technique and were allowed to disperse evenly within a CO2 incubator at 37 degree C. At least five aliquots from each sample was used to prepare the working spermatozoa suspension. The swim up procedure was as follows:
Pre equilibrated BWW medium (1.25 ml) was gently layered over cauda-exudates or liquefied human semen (1 ml) in a sterile 15 ml conical-based centrifuge tube. The tube was inclined at an angle of 45 degree and incubated for 1 hour at 37 degree C. in a CO2-incubator. It was then gently returned to the upright position and the uppermost 1 ml medium with a turbid appearance was removed. This aliquot of motile cells was pooled from each set, then diluted with same volumes of pre equilibrated BWW medium, centrifuged at 500 g for 5 minutes and finally resuspended in 1 ml pre equilibrated BWW medium to obtain a working suspension. The sperm cells were counted in a Makler chamber (Zygotec Systems, Springfield, M A, USA) and finally a working spermatozoa suspension having concentration of 25 to 30×10^6 cells/ml was prepared.
For in vitro assay of spermicidal effect, sperms collected from proven male rats and mice, and motile spermatozoa from liquefied human semen were used.
The assay was done following the Sander & Cramer assay method. Two hundred micro liter (200 microliters) of working spermatozoa suspension was added to 1 ml solution of test material in BWW medium and mixed on a light vortex for 10 seconds. A wet mount was immediately prepared on a clean microscopy glass slide and examined (at ×100) under a phase contrast microscope (Leitz, Biomed). The weakest concentration that immobilized all spermatozoa within 20 seconds of mixing was recorded as MEC. At least five fields were examined for each wet mount preparation. The observation was repeated with five individual spermatozoa suspension for each concentration of test compound solution. For negative control, saponin solutions were replaced by equal volume of BWW medium, while Nonoxynol 9 was used as positive control.

human spermatozoa [2] = assay: Membrane lipid peroxidation, MDA by thiobarbituric acid (TBA) test; details: Ac-B 10-120 microgram per ml, 20 seconds
Protocol: Membrane lipid peroxidation was estimated by the end point generation of malondialdehyde (MDA) determined by the thiobarbituric acid (TBA) test.
Suspension of human spermatozoa was prepared using the swim up technique, as described above. A series of dilutions (10, 20, 40, 60, 80, 100 and 120 microgram per ml) of Ac-B was prepared in BWW medium. From each test (Ac-B) solution, 800 microliters was taken out and mixed with 200 microliters of sperm suspension with a gentle vortex for 10 seconds. After 20 seconds of mixing, the treated spermatozoa were separated from the suspending medium by centrifugation. The pellet of washed spermatozoa was resuspended in physiological saline. A control set of untreated sperm was treated similarly. Membrane lipid peroxidation was estimated by the end point generation of malondialdehyde (MDA), determined by the thiobarbituric acid (TBA) test.
Briefly, diluted spermatozoa with or without treatment (250×10^6 cells in 1 ml) were mixed with 1 ml of cold 20% (wt/vol) trichloroacetic acid (TCA) to precipitate protein. The precipitate was pelleted by centrifugation (2000 rpm for 10 minutes), and 1 ml of the supernatant was incubated with 1 ml of 0.67% (wt/vol) TBA in a boiling water bath at 100 degree C. for 30 minutes. After cooling, the absorbance was determined by a spectrophotometer (UNICAM PU 8610 Kinetics spectrophotometer; Philips, Holland) at 535 nm.

Acaciaside-B [Ac-B]
Electron microscopic finding on plasma membrane (TEM) (human sperm): vesiculization/vacuolization of the plasma membrane leading to its disintegration
Number of Candida albicans colonies, presence vs absence of Ac-B (Candida albicans): no significant difference
Sizes of individual Candida albicans colonies (Candida albicans): comparatively smaller
Percentage inhibition of hiv growth in CEM-GFP T cell line, Without Pretreatment (HIV-1 NL-4.3 virus; Ac-B 0.1 microgram per ml, day-7 p24): 0%
Percentage inhibition of hiv growth in CEM-GFP T cell line, Pretreatment with Ac-B (HIV-1 NL-4.3 virus; Ac-B 0.1 microgram per ml, virus pretreated 1 hour at 37 degree C, day-7 p24): 70.5%
Percentage inhibition of hiv growth in CEM-GFP T cell line, Without Pretreatment (HIV-1 NL-4.3 virus; Ac-B 0.2 microgram per ml): 0%
Percentage inhibition of hiv growth in CEM-GFP T cell line, Pretreatment with Ac-B (HIV-1 NL-4.3 virus; Ac-B 0.2 microgram per ml, virus pretreated): 77.8%
Percentage inhibition of hiv growth in CEM-GFP T cell line, Without Pretreatment (HIV-1 NL-4.3 virus; Ac-B 0.25 microgram per ml): 0%
Percentage inhibition of hiv growth in CEM-GFP T cell line, Pretreatment with Ac-B (HIV-1 NL-4.3 virus; Ac-B 0.25 microgram per ml, virus pretreated): 92%
Percentage inhibition of hiv growth in CEM-GFP T cell line, Without Pretreatment (HIV-1 NL-4.3 virus; Ac-B 0.5 microgram per ml): 36.1%
Percentage inhibition of hiv growth in CEM-GFP T cell line, Pretreatment with Ac-B (HIV-1 NL-4.3 virus; Ac-B 0.5 microgram per ml, virus pretreated): 90.6%
Percentage inhibition of hiv growth in CEM-GFP T cell line, Without Pretreatment (HIV-1 NL-4.3 virus; Ac-B 1 microgram per ml): 60.5%
Percentage inhibition of hiv growth in CEM-GFP T cell line, Pretreatment with Ac-B (HIV-1 NL-4.3 virus; Ac-B 1 microgram per ml, virus pretreated): 99.73%
Percentage inhibition of hiv growth in CEM-GFP T cell line, Without Pretreatment (HIV-1 NL-4.3 virus; Ac-B 1.5 microgram per ml): 100%
Percentage inhibition of hiv growth in CEM-GFP T cell line, Pretreatment with Ac-B (HIV-1 NL-4.3 virus; Ac-B 1.5 microgram per ml, virus pretreated): 100%
Percentage inhibition of hiv growth in CEM-GFP T cell line, Without Pretreatment (HIV-1 NL-4.3 virus; Ac-B 2 microgram per ml): 100%
Percentage inhibition of hiv growth in CEM-GFP T cell line, Pretreatment with Ac-B (HIV-1 NL-4.3 virus; Ac-B 2 microgram per ml, virus pretreated): 100%
Percentage inhibition of hiv growth in CEM-GFP T cell line, Without Pretreatment (HIV-1 NL-4.3 virus; Ac-B 2.5 microgram per ml): 100%
Percentage inhibition of hiv growth in CEM-GFP T cell line, Pretreatment with Ac-B (HIV-1 NL-4.3 virus; Ac-B 2.5 microgram per ml, virus pretreated): 100%
Inhibition of viral transmission, untreated virus (HIV-1 NL-4.3 virus; cells infected with untreated virus, cultured in the presence of Ac-B 0.1 to 2.5 microgram per ml): only partial inhibition
MEC as per Sander and Cramer Test (human spermatozoa [1]; Human spermatozoa (N = 5), weakest concentration immobilizing all spermatozoa within 20 seconds): 125 microgram per ml and 125 (±7) microgram per ml
EC50 for spermicidal activity in vitro (human spermatozoa [1]; human sperm): 22 microgram per ml
MEC for spermicidal action (human spermatozoa [1]; human sperm): 125 microgram
MEC for spermicidal activity (human spermatozoa [1]; human sperm): 125 micro g/ml
MEC, spermicidal (human spermatozoa [1]; human sperm): 125 µg/mL
Production of malondialdehyde (MDA) (human spermatozoa [2]): increase in the production of MDA; also recorded: dose-dependent increased generation of malondialdehyde (MDA)
